Experiments:
[1] = tested on: PSD-95; assay: Western blot of brain PSD-95 after anesthesia/surgery; format: in vivo, mice; settings: 26.4 mg/kg IP
Excerpt: (§1) 9-month-old C57BL/J6 female mice were adaptive in lab for 3 days. The mice were randomly assigned to the anesthesia/surgery group or control group by weight. […] Specifically, the inventors anesthetized each of the mice using 1.4% isoflurane in 100% oxygen in a transparent acrylic chamber. Fifteen minutes after the induction, the inventors moved the mouse out of the chamber. Isoflurane anesthesia was maintained via a cone device, and one 16-gauge needle was inserted into the cone near the nose of the mouse to monitor the concentration of isoflurane. […]
Brain Tissue Harvest, Lysis and Protein Quantification. […] Levels of interleukin-6 (IL-6) and postsynaptic density (PSD)-95 in the cortex and hippocampus of mice will be assessed. […] The lysates will be collected, centrifuged at 10,000 rpm for 5 minutes at 4° C., and quantified for total proteins by bicinchoninic acid (BCA) protein assay kit (Pierce, Iselin, NJ). […]
Western Blot Analysis. […] Western blot quantification was performed as described. Briefly, signal intensity was analyzed using a Bio-Rad (Hercules, CA) image program (Quantity One). The inventors quantified Western blots in two steps, first, the inventors used β-Actin levels to normalize (e.g., determine the ratio of PSD-95 to β-Actin amount) protein levels and control for loading differences in the total protein amount. […]

[2] = tested on: synaptophysin; assay: Western blot of brain synaptophysin after anesthesia/surgery; format: in vivo, mice; settings: 26.4 mg/kg IP
[3] = tested on: ATP; assay: brain ATP measurement after anesthesia/surgery; format: in vivo, mice; settings: 26.4 mg/kg IP
Excerpt: as §1, with “isoflurane. The inventors made a longitudinal midline incision from the xiphoid to the 0.5 centimeter proximal pubic symphysis on the skin, abdominal muscles and peritoneum. The inventors then sutured the incision layer by layer with 5-0 Vicryl thread.” for “isoflurane.”
ATP Measurement. The levels of ATP in the cortex of mice (N=6 in each group) were determined by the ATP Colorimetric/Fluorometric Assay Kit following the protocol provided by the manufacturer (Abcam, Cambridge, MA). […] The amount of fluorescence will be measured and the levels of ATP in the experimental samples will be calculated from the standard curve made from samples containing a known amount of ATP.

[4] = tested on: anesthesia/surgery-induced cognitive impairment; assay: Fear Conditioning Test (FCT); format: in vivo, mice; settings: 52.8 mg/kg IP; Tone test 48 hours, Context test 7 days after anesthesia/surgery; FIG. 6A-6D
Excerpt: (§2) 9-month-old C57BL/J6 female mice were adaptive in lab for 3 days. The mice were randomly assigned to the anesthesia/surgery group or control group by weight. […] Specifically, the inventors anesthetized each of the mice using 1.4% isoflurane in 100% oxygen in a transparent acrylic chamber. Fifteen minutes after the induction, the inventors moved the mouse out of the chamber. Isoflurane anesthesia was maintained via a cone device, and one 16-gauge needle was inserted into the cone near the nose of the mouse to monitor the concentration of isoflurane. The inventors made a longitudinal midline incision from the xiphoid to the 0.5 centimeter proximal pubic symphysis on the skin, abdominal muscles and peritoneum. The inventors then sutured the incision layer by layer with 5-0 Vicryl thread.
(§3) The inventors applied EMLA cream (2.5% lidocaine and 2.5% prilocaine) to the incision site at the end of the procedure, and then every eight hours until the euthanasia of the mice, to treat the pain associated with the incision. […]
The first tone test was performed at 90 minutes after the end of the pairing. […] The “freezing behavior” was analyzed by Any-Maze (freezing on threshold: 10; freezing off threshold: 20; minimum freezing duration: one second) (Stoelting). The percentage of freezing time was calculated by dividing the actual freezing time with the observed time (180 seconds).

[5] = tested on: anesthesia/surgery-induced cognitive impairment; assay: Barnes Maze Test; format: in vivo, mice; settings: 26.4 mg/kg and 13.2 mg/kg IP; one week after anesthesia/surgery; FIG. 7A-7J
Excerpt: as §2, §3
One week after anesthesia/surgery, animals were subjected to Barnes maze to test their spatial learning and memory. […] The latency and number of errors to find the target box during each trial were recorded with the assistance of ANY-Maze video tracking system.

[6] = tested on: IL-6; assay: brain IL-6 levels after anesthesia/surgery; parameters: species or system mice; settings: mouse, in vivo
Method: Brain Tissue Harvest, Lysis and Protein Quantification. Different mice will be used for the harvest of brain tissue. Levels of interleukin-6 (IL-6) and postsynaptic density (PSD)-95 in the cortex and hippocampus of mice will be assessed. The brain tissues (cortex and hippocampus) of the mice will be harvested immediately at the end of the anesthesia/surgery by decapitation. The harvested brain tissues will be homogenized on ice using immunoprecipitation buffer (10 mM Tris-HCl, pH 7.4, 150 mM NaCl, 2 mM EDTA, 0.5% Nonidet P-40) plus protease inhibitors ([…]). The lysates will be collected, centrifuged at 10,000 rpm for 5 minutes at 4° C., and quantified for total proteins by bicinchoninic acid (BCA) protein assay kit (Pierce, Iselin, NJ). The brain tissues will then be subjected to Western Blot.

[7] = tested on: ROS; assay: brain ROS levels after anesthesia/surgery; parameters: species or system mice; settings: mouse, in vivo
[8] = target: cyclophilin A (Homo sapiens, UniProt P62937); settings: cited from earlier work
[9] = tested on: calcineurin; settings: at concentrations up to 2 μM; cited from earlier work
[10] = tested on: cytochrome P450 1A2; settings: cited from earlier work
[11] = tested on: cytochrome P450 2B6; settings: cited from earlier work
[12] = tested on: cytochrome P450 3A4; settings: cited from earlier work
[13] = target: P-glycoprotein (Homo sapiens, UniProt P08183); settings: cited from earlier work
[14] = tested on: stimulated Jurkat cells; settings: cited from earlier work
[15] = tested on: stimulated human peripheral blood mononuclear cells; settings: cited from earlier work
[16] = tested on: hepatitis C virus (HCV); settings: in vitro; cited from earlier work
[17] = tested on: hepatitis C virus (HCV); settings: two-drug combination, in vitro; cited from earlier work
[18] = multiple animal species, cited from earlier work

Chain of P-glycoprotein (P08183 whole entry): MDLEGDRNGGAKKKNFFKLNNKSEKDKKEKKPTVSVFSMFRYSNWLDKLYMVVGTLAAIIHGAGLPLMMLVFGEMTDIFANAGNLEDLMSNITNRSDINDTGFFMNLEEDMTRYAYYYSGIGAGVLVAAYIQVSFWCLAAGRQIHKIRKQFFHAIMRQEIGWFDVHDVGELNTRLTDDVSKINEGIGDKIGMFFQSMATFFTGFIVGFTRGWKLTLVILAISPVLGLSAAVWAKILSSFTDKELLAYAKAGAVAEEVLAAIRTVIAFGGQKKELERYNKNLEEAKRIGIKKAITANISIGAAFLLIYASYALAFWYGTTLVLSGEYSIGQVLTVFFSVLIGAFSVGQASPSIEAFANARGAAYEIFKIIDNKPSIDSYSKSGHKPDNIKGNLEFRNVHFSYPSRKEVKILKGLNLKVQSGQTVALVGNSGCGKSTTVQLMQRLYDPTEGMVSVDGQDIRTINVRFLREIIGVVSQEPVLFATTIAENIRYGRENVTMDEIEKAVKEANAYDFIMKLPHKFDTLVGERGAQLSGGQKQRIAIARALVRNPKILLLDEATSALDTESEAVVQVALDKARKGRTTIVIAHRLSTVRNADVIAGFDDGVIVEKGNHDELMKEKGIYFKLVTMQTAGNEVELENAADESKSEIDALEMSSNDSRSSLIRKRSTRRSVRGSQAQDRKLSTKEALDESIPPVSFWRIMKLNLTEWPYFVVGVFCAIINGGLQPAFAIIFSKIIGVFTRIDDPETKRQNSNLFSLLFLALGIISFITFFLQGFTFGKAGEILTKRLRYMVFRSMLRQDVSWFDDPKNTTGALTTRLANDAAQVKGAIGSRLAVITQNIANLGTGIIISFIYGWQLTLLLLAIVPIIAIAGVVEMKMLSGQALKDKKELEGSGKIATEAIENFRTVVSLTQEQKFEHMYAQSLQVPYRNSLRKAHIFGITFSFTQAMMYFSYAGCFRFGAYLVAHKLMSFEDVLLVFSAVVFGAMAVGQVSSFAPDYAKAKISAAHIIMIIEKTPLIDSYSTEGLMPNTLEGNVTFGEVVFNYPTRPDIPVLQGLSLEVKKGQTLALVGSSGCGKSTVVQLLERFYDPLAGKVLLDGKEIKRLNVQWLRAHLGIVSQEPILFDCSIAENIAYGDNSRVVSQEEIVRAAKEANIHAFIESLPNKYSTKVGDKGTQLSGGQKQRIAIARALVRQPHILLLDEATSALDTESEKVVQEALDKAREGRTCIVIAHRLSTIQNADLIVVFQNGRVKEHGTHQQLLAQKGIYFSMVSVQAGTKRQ
Chain of cyclophilin A (P62937 whole entry, species assumed): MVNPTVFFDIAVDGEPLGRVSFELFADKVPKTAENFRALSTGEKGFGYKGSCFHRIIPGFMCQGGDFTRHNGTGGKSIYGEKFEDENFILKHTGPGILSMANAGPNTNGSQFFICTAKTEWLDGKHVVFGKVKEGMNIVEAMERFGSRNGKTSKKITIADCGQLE

C/C=C/C[C@@H](C)[C@@H](O)[C@H]1C(=O)N[C@@H](CC)C(=O)N(C)[C@H](SCCN(C)C)C(=O)N(C)[C@@H](CC(C)(C)O)C(=O)N[C@@H](C(C)C)C(=O)N(C)[C@@H](CC(C)C)C(=O)N[C@@H](C)C(=O)N[C@H](C)C(=O)N(C)[C@@H](CC(C)C)C(=O)N(C)[C@@H](CC(C)C)C(=O)N(C)[C@@H](C(C)C)C(=O)N1C [WS-635, (3S,6S,9S,12R,15S,18S,21S,24S,27R,30S,33S)-27-((2-(dimethylamino)ethyl)thio)-30-ethyl-33-((1R,2R,E)-1-hydroxy-2-methylhex-4-en-1-yl)-24-(2-hydroxy-2-methylpropyl)-6,9,18-tri isobutyl-3,21-diisopropyl-1,4,7,10,12,15,19,25,28-nonamethyl-1,4,7,10,13,16,19,22,25,28,31-undecaazacyclotritriacontan-2,5,8,11,14,17,20,23,26,29,32-undecaone]
anesthesia/surgery-induced decrease of PSD-95 level in cortex ([1]; cortex, FIG. 3): mitigate
anesthesia/surgery-induced decrease of PSD-95 level in hippocampus ([1]; hippocampus, FIG. 4): mitigate
anesthesia/surgery-induced decrease of synaptophysin level in cortex ([2]; cortex, FIG. 3): mitigate
anesthesia/surgery-induced decrease of synaptophysin level in hippocampus ([2]; hippocampus, FIG. 4): mitigate
anesthesia/surgery-induced decrease of ATP level in cortex ([3]; cortex, FIG. 5A): mitigate
anesthesia/surgery-induced decrease of ATP level in hippocampus ([3]; hippocampus, FIG. 5B): mitigate
anesthesia/surgery-induced reduction in freezing time [4]: mitigated
anesthesia/surgery-induced decrease in escape speed [5]: mitigated
anesthesia/surgery-induced increase in escape latency [5]: mitigated
anesthesia/surgery-induced changes in brain levels of IL-6 [6]: attenuate
anesthesia/surgery-induced changes in brain levels of ROS [7]: attenuate
inhibition of peptidyl prolyl isomerase activity of cyclophilin A [8]: nanomolar concentrations
inhibition of calcineurin phosphatase activity [9]: no detectable inhibition
induction of cytochrome P450 1A2 [10]: did not induce
induction of cytochrome P450 2B6 [11]: did not induce
induction of cytochrome P450 3A4 [12]: did not induce
inhibition of P-glycoprotein [13]: weak inhibitor
substrate for P-glycoprotein [13]: poor substrate
inhibition of interleukin-2 secretion compared with cyclosporine [14]: weaker inhibitor
inhibition of interleukin-2 secretion compared with cyclosporine [15]: weaker inhibitor
suppression of HCV replication [16]: potent suppression
antiviral activity in combination with alpha interferon 2b [17]: synergistic antiviral activity
antiviral activity in combination with ribavirin [17]: additive antiviral activity
oral bioavailability [18]: orally bioavailable
blood and liver concentrations of parent drug versus 50% effective dose in replicon assay ([18]; oral): exceeded the 50% effective dose

From US12226446B2, “WS-635 uses thereof in medicine” (WATERSTONE PHARMACEUTICALS(WUHAN) CO., LTD., priority 2019, dated 2025)
